# In article PMC8227659, “The Metarhizium anisopliae Toxin, Destruxin A, Interacts with the SEC23A and TEME214 Proteins of Bombyx mori” (Journal of Fungi, 2021):
# Where a SMILES comes first, the peptide text is derived from it. [ ]: non-standard residue; d: D form. dLac(3-vinyl) = C=CC[C@@H](O)C(=O)O; NMeV = CN[C@H](C(=O)O)C(C)C; NMeA = CN[C@@H](C)C(=O)O; βAla = NCCC(=O)O
# Biological target: T1, BmTMEM214 (BmTEME214) (Bombyx mori, UniProt A0A8R1WLS5)
# T1 construct: immobilised on biosensor
# T1 sequence (A0A8R1WLS5 1-663): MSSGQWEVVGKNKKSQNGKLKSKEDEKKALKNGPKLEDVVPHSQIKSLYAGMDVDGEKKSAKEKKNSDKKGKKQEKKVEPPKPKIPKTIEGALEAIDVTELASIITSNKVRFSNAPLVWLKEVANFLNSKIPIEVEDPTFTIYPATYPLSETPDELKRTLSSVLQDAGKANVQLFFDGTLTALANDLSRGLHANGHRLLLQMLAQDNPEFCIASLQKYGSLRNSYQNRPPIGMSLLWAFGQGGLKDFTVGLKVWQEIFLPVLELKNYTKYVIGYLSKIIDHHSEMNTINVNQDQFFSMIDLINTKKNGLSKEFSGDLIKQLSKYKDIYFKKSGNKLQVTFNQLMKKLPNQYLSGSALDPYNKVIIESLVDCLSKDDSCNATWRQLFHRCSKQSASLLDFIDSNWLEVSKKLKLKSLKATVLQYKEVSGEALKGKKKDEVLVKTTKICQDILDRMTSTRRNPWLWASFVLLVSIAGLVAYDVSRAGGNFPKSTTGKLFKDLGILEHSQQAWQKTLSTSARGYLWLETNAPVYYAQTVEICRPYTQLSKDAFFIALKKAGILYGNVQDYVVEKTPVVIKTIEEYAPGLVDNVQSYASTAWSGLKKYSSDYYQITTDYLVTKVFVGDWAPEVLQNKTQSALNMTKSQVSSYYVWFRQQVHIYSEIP
# Experiment: bio-layer interferometry, immobilised protein
# Format: binding
# Text: bio-layer interferometry, immobilised protein on BmTMEM214 (BmTEME214)
compound,measurement,value
"C=CC[C@H]1OC(=O)CCNC(=O)[C@H](C)N(C)C(=O)[C@H](C(C)C)N(C)C(=O)[C@H]([C@@H](C)CC)NC(=O)[C@@H]2CCCN2C1=O [DA, Destruxin A] (cyclo(I[NMeV][NMeA][βAla][dLac(3-vinyl)]P))",Kd,286 nM
